Data on 5 compounds can be found in ChEMBL document CHEMBL3792369, “Nahuoic Acids B-E, Polyhydroxy Polyketides from the Marine-Derived Streptomyces sp. SCSGAA 0027” (2016).

Activity calls are given as the source filed them. No cut-off for these calls is given here.

One experiment concerns BGC-823. The experiment can be described thus: Cytotoxicity against human BGC823 cells. Type of experiment: functional, cell-based.
A further experiment relates to Huh-7. The experiment can be described thus: Cytotoxicity against human HuH7 cells. Format: functional, cell-based.
The subject of experiment [1] is Staphylococcus aureus. The experiment can be described thus: Antibiofilm activity against Staphylococcus aureus assessed as inhibition of biofilm formation by crystal violet assay. Format: functional, organism-based.
A further experiment has as its system MCF7. The experiment can be described thus: Cytotoxicity against human MCF7 cells. Format: functional, cell-based.
The test system of experiment [2] is Shewanella oneidensis. Put plainly: Antibacterial activity against Shewanella oneidensis MR-1. Format: functional.
Experiment [3] addresses Acetylcholinesterase (Homo sapiens) (UniProt P22303). The experiment can be described thus: Inhibition of acetylcholinesterase (unknown origin).
Another experiment relates to K562. The experiment can be described thus: Cytotoxicity against human K562 cells. Format: functional, cell-based.
Another experiment has as its system HL-60. Put plainly: Cytotoxicity against human HL60 cells. Format: functional, cell-based.
Another experiment concerns NCI-H1975. The experiment can be described thus: Cytotoxicity against human NCI-H1975 cells. Format: functional, cell-based.
Experiment [4] relates to Shewanella oneidensis. Put plainly: Antibiofilm activity against Shewanella oneidensis MR-1 assessed as inhibition of biofilm formation at 200 ug/ml by crystal violet assay. Format: functional.
Experiment [5] concerns Staphylococcus aureus. Put plainly: Antibacterial activity against Staphylococcus aureus. Format: functional, organism-based.

Acetylcholinesterase (Homo sapiens), sequence (P22303 whole entry): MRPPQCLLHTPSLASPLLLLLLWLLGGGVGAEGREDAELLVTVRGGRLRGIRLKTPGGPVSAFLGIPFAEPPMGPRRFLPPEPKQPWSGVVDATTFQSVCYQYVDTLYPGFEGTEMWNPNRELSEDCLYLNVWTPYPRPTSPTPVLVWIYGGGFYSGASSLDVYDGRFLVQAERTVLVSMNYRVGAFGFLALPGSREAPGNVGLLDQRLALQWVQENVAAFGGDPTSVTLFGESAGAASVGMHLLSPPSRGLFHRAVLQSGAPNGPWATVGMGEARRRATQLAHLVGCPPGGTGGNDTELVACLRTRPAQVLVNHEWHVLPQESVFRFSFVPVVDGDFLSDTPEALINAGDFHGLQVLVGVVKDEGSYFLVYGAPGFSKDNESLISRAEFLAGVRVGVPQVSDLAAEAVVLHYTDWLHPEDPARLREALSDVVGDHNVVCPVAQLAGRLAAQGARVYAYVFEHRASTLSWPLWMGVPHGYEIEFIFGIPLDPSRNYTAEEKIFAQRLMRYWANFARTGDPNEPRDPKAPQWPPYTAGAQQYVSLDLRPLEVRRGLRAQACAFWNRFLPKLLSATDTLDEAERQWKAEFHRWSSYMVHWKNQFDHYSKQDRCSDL

One may read the inhibition as the drop in the measured response relative to a control, in per cent. Regarding `CC1=C[C@@]2(C)[C@H]([C@@H](C)[C@H](O)[C@H](O)[C@H]2O)[C@@H](/C=C(\C)C(=O)O)[C@@H]1/C(C)=C/C[C@H](O)C[C@@H](O)[C@H](C)[C@@H](O)C(C)C`, the outcome with BGC-823, in the experiment with Huh-7, with Staphylococcus aureus [1], in the experiment on MCF7, in the experiment on Shewanella oneidensis [2] and in the experiment on K562 was inactive. The outcome in the experiment with HL-60, in the experiment on NCI-H1975 and in the experiment with Staphylococcus aureus [5] was inactive. Moreover, the inhibition result in experiment [3] was “inactive”. The inhibition at 200 µg/mL in the experiment with Shewanella oneidensis [4] is 63%.

In the case of `CC1=C[C@@]2(C)[C@@H]([C@@H](/C=C(\C)C(=O)O)[C@@H]1/C(C)=C/C[C@H](O)C[C@@H](O)[C@H](C)[C@@H](O)C(C)C)[C@@H](C)CC[C@H]2O`, the outcome with BGC-823, in the experiment with Huh-7, in the experiment with Staphylococcus aureus [1], in the experiment on MCF7, in the experiment with Shewanella oneidensis [2] and in the experiment with K562 was inactive. The result with HL-60, with NCI-H1975 and with Staphylococcus aureus [5] was inactive. The inhibition entry in experiment [3] is “inactive”. Moreover, the inhibition at 200 µg/mL with Shewanella oneidensis [4] came out at 94%.

For the compound `CC1=C[C@@]2(C)[C@H]([C@@H](C)[C@H](O)C[C@H]2O)[C@@H](/C=C(\C)C(=O)O)[C@@H]1/C(C)=C/C[C@H](O)C[C@@H](O)C[C@@H](O)[C@H](C)[C@@H](O)C(C)C`, the result with BGC-823, with Huh-7, in the experiment on Staphylococcus aureus [1], with MCF7, with Shewanella oneidensis [2] and in the experiment with K562 was inactive. For the same compound, the result in the experiment with HL-60, with NCI-H1975 and in the experiment with Staphylococcus aureus [5] was inactive. The inhibition entry in [3] is “inactive”. In addition, the inhibition at 200 µg/mL in the experiment with Shewanella oneidensis [4] was 91%.

For `CC1=C[C@@]2(C)[C@@H]([C@@H](/C=C(\C)C(=O)O)[C@@H]1/C(C)=C/C[C@H](O)C[C@@H](O)C[C@@H](O)[C@H](C)[C@@H](O)C(C)C)[C@@H](C)CC[C@H]2O`, the outcome with BGC-823, in the experiment on Huh-7, in the experiment on Staphylococcus aureus [1], in the experiment on MCF7, with Shewanella oneidensis [2] and in the experiment with K562 was inactive. For the same compound, the result in the experiment on HL-60, with NCI-H1975 and with Staphylococcus aureus [5] was inactive. In addition, the inhibition entry in [3] was “inactive”. In addition, in the experiment with Shewanella oneidensis [4], the inhibition at 200 µg/mL was 95%.

For `CC1=C[C@@]2(C)[C@H]([C@@H](C)[C@H](O)C[C@H]2O)[C@@H](/C=C(\C)C(=O)O)[C@@H]1/C(C)=C/C[C@H](O)C[C@@H](O)[C@H](C)[C@@H](O)C(C)C`, the result in the experiment on BGC-823, with Huh-7, in the experiment with Staphylococcus aureus [1], in the experiment on MCF7, in the experiment with Shewanella oneidensis [2] and with K562 was inactive. For the same compound, the result in the experiment on HL-60, with NCI-H1975 and in the experiment with Staphylococcus aureus [5] was inactive. The inhibition result in experiment [3] was “inactive”. For the same compound, the inhibition at 200 µg/mL in the experiment on Shewanella oneidensis [4] was 98%.
